Tested on: SARS-CoV-2 variants (TX7-501, TY8-612, QHN001, K1734, K5356)
Type: cell-based
Conditions: variants of Table 4 instead of WK-521; data not shown

Structure (SMILES): CC(C)(C)[C@H](NC(=O)C(F)(F)F)C(=O)N1C[C@H]2[C@@H]([C@H]1C(=O)N[C@@H](C[C@@H]1CCNC1=O)C(=O)c1nc3c(F)cccc3s1)C2(C)C [Compound 245, (1R,2S,5S)-3-((S)-3,3-dimethyl-2-(2,2,2-trifluoroacetamido)butanoyl)-N-((S)-1-(4-fluorobenzo[d]thiazol-2-yl)-1-oxo-3-((S)-2-oxopyrrolidin-3-yl)propan-2-yl)-6,6-dimethyl-3-azabicyclo[3.1.0]hexane-2-carboxamide]
- antiviral activity against variants: excellent antiviral activities
